{"source": "patent US20100137346A1", "about": "“DESFE[…] ACTINIDE DEC[…]” (priority 2006, published 2010)", "key": {"[1]": {"conditions": "in vivo; cited from earlier work"}, "[2]": {"conditions": "bile duct-cannulated rodent model; cited from earlier work"}, "[3]": {"conditions": "cited from earlier work; for iron-clearing efficiency, in words: in both rodents and primates"}, "[4]": {"conditions": "rats, same dose; cited from earlier work"}, "[5]": {"assay": "Chelator accumulation in lung tissue", "type": "in vivo, rodents", "conditions": "SC 300 μmol/kg, 0.5 h post drug", "excerpt": "Chelator Access to Lung Tissue. As inhalation is one of the principal routes of potential actinide contamination, in a preliminary study aimed at this proposal, the accumulation of two different DFT analogues in lung tissue, (S)-4′-(HO)-DADMDFT (9, FIG. 1) and (S)-3′,4′-(CH3O)-DADMDFT, 19, Table 2)] was investigated. Rodents were given the drugs SC at a dose of 300 μmol/kg. The latter chelator is far more lipophilic than the former. The more lipophilic chelator (19) achieved a concentration of 290±66 nmol/g wet weight 0.5 h post drug. The level of the less lipophilic ligand (9) was much lower, 80±9 nmol/g wet weight 0.5 h post drug. This is consistent with the idea that organ targeting can be achieved,[Bergeron, et al., Impact of the Lipophilicity of Desferrithiocin Analogues on Iron Clearance, Medicinal Inorganic Chemistry 2005; 366-383] corroborating previous studies and further contributing to the index of success of the invention."}, "[6]": {"assay": "Chelator-induced uranium excretion (urine + bile, 24 h) in bile duct-cannulated rat model", "type": "in vivo", "conditions": "for % of Administered Dose Cleared: 300 μmol/kg IP Immediate", "description": "Desferrithiocin Analogue Induced Excretion of Uranium. In order to compare results with previous chelator-induced iron excretion data, the uranium clearance studies were carried out in a bile duct-cannulated rat model. The animals were given uranyl acetate dihydrate SC at a dose of 5 mg/kg (the actual dose of uranium is 2.8 mg/kg). Bile and urine samples were collected for 24 hours after dosing. Kidneys were removed from selected animals and tissue uranium concentration measured. At least three animals were utilized in each experimental group. Data from two separate control studies (uranyl acetate/ no chelator) have now been combined for a total of 14 control animals. All uranium concentrations were measured using ICPMS. The data are reported as the total quantity of uranium excreted [urine +bile]; the mode of excretion [urine/bile] is also given. In addition the percentage of the administered dose of uranium cleared and chelator-induced uranium excretion vs the controls is also given. Four positive controls were evaluated: DTPA (13, Table 1) given as its trisodium calcium salt, DFO (14), N,N′-bis(2hydroxybenzyl)ethylenediamine-N,N′-diacetic acid, monosodium salt (NaHBED, 15) and the hydroxypyridone CP94 (16) shown to bind uranium [Pashalidis, et al., Effective complex formation in the interaction of 1,2-dimethyl-3-hydroxypyrid-4-one (Deferiprone or L1) with uranium(VI), Journal of Radioanalytical and Nuclear Chemistry 1999; 242:181-184.] The total metal cleared after 24 h in control rats was 10% of the administered dose. When DTPA, 13, was given IP or PO at 300 μmol/kg immediately after uranium, the excretion was 17% and 8% of the administered dose respectively (p>0.05). However, when the drug was given IP at a dose of 600 μmol/kg immediately post-metal, the uranium excretion was significant, 20% (p<0.005). This is consistent with previously published data using a similar animal model.[Domingo, et al., Comparative effects of the chelators sodium 4,5-dihydroxybenzene-1,3-disulfonate (Tiron) and diethylenetriaminepentaacetic acid (DTPA) on acute uranium nephrotoxicity in rats, Toxicology 1997; 118:49-59] DFO (14) and CP94 (16) given IP immediately post uranyl acetate were ineffective.\nDesferrithiocin Analogue-Induced Excretion of Uranium. In order to compare results with previous chelator-induced iron excretion data, the uranium clearance studies were carried out in a bile duct-cannulated rat model. The animals were given uranyl acetate dihydrate SC at a dose of 5 mg/kg (the actual dose of uranium is 2.8 mg/kg). Bile and urine samples were collected for 24 hours after dosing. Kidneys were removed from selected animals and tissue uranium concentration measured. At least three animals were utilized in each experimental group. Data from two separate control studies (uranyl acetate/ no chelator) are combined for a total of 14 control animals. All uranium concentrations were measured using ICPMS. The data are reported as the total quantity of uranium excreted [urine +bile]; the mode of excretion [urine/bile] is also given. In addition the percentage of the administered dose of uranium cleared and chelator-induced uranium excretion vs the controls is also given. Four positive controls were evaluated: DTPA (1, Table 1) given as its trisodium calcium salt, DFO (2), N,N -bis(2-hydroxybenzyl)ethylenediamine-N,N-diacetic acid, monosodium salt (NaHBED, 3) and the hydroxypyridone CP94 (4) shown to bind uranium. The total metal cleared after 24 h in control rats was 10% of the administered dose. When DTPA, 1, was given IP or PO at 300 μmol/kg immediately after uranium, the excretion was 17% and 8% of the administered dose respectively (p>0.05). However, when the drug was given IP at a dose of 600 μmol/kg immediately post metal, the uranium excretion was significant, 20% (p<0.005). This is consistent with previously published data using a similar animal model.^2 DFO (2) and CP94 (4) given IP immediately post uranyl acetate were ineffective."}, "[7]": {"conditions": "cited from earlier work"}, "[8]": {"conditions": "rodents; cited from earlier work"}, "[9]": {"assay": "Iron-clearing efficiency (ICE) in iron-overloaded Cebus apella primate", "type": "in vivo", "conditions": "orally to C. apella primates, 150 μmol/kg", "description": "In the text below, “iron-clearing efficiency” (ICE) [Bergeron, et al., Effects of C-4 Stereochemistry and C-4′ Hydroxylation on the Iron Clearing Efficiency and Toxicity of Desferrithiocin Analogues, J Med Chem 1999; 42:2432-2440] is used as a measure of the amount of iron excretion induced by a chelator. The ICE, expressed as a percent, is calculated as (ligand-induced iron excretion/theoretical iron excretion)×100. To illustrate, the theoretical iron excretion after administration of one millimole of desferrioxamine (DFO, 14, Table 1), a hexadentate chelator which forms a 1:1 complex with Fe(III), is one milli-g-atom of iron. Two millimoles of desferrithiocin (DFT, 1, FIG. 1), a tridentate chelator which forms a 2:1 complex with Fe(III), are required for the theoretical excretion of one milli-g-atom of iron. In clinical practice, the actual ICE of DFO (14), used to treat people with iron overload, is only 5 to 7% [Pippard, et al., Iron Chelation Using Subcutaneous Infusions of Diethylene Triamine Penta-acetic Acid (DTPA), Scand J Haematol 1986; 36:466-472; Pippard, Desferrioxamine-Induced Iron Excretion in Humans, Bailliere's Clin Haematol 1989; 2:323-343]. […]"}}, "note": "Where two headings read alike, the source gives them in different places.", "data": [{"smiles": "C[C@]1(C(=O)O)CSC(c2ncccc2O)=N1", "note": "[Compound 1, (S)-4,5-dihydro-2-(3-hydroxy-2-pyridinyl)-4methyl-4-thiazolecarboxylic acid, reference compound]", "values": [{"measurement": "toxicity, in words", "setting": "[1]", "value": "severely nephrotoxic"}, {"measurement": "ICE", "setting": "[2]", "value": 5.5, "unit": "%"}, {"measurement": "ICE", "setting": "[3]; iron-overloaded C. apella primate", "value": 16, "unit": "%"}]}, {"smiles": "O=C(O)[C@H]1CSC(c2ccc(O)cc2O)=N1", "note": "[Compound 9, (S)-2(2,4-dihydroxyphenyl)-4,5-dihydro-4-thiazolecarboxylic acid]", "values": [{"measurement": "outcome of planned 10-day dosing regimen", "setting": "[4]", "value": "did not display any frank toxicity"}, {"measurement": "concentration in lung tissue", "setting": "[5]", "value": "80±9", "unit": "nmol/g wet weight"}, {"measurement": "iron-clearing activity, in words", "setting": "[3]; C. apella model", "value": "compatible with iron clearance"}, {"measurement": "ICE", "setting": "[3]; administered PO at a dose of 150 μmol/kg", "value": 5.3, "unit": "%"}]}, {"smiles": "COc1ccc(C2=N[C@@](C)(C(=O)O)CS2)c(O)c1", "note": "[Compound 12, (S)-4,5-dihydro2-(2-hydroxy-4-methoxyphenyl)4-methyl-4-thiazolecarboxylic acid]", "values": [{"measurement": "% of Administered Dose Cleared", "setting": "[6]", "value": 20, "unit": "%"}, {"measurement": "uranium excretion, in words", "setting": "[6]; IP 300 μmol/kg, given 0.5 h post metal", "value": "within error of control"}, {"measurement": "toxicity, in words", "setting": "[1]", "value": "too toxic for clinical consideration"}, {"measurement": "metabolite formed by metabolic O-demethylation", "setting": "[7]; in vivo", "value": "(S)-4′-(HO)-DADFT (10)"}, {"measurement": "iron-clearing efficiency, in words", "setting": "[3]", "value": "excellent iron-clearing efficiency"}]}, {"smiles": "COCCOCCOCCOc1ccc(C2=N[C@@](C)(C(=O)O)CS2)c(O)c1", "note": "[Compound 18, (S)-4,5-dihydro-2-[2-hydroxy-4-(3,6,9-trioxadecyloxy)phenyl]-4methyl-4-thiazolecarboxylic acid]", "values": [{"measurement": "% of Administered Dose Cleared", "setting": "[6]", "value": 22, "unit": "%"}, {"measurement": "kidney concentration versus 10", "setting": "[7]; rodents", "value": "significantly lower concentrations in the kidney"}, {"measurement": "liver concentration versus 10", "setting": "[7]; rodents", "value": "higher concentrations in the liver"}, {"measurement": "tolerability versus 10", "setting": "[8]", "value": "more tolerable"}, {"measurement": "iron-clearing efficiency, in words", "setting": "[3]", "value": "highly efficient iron chelator"}]}, {"smiles": "COc1ccc(C2=N[C@@H](C(=O)O)CS2)c(O)c1OC", "note": "[Compound 19, (S)-4,5-dihydro-2(3,4-dimethoxy-2-hydroxyphenyl)-4-thiazolecarboxylic acid]", "values": [{"measurement": "concentration in lung tissue", "setting": "[5]", "value": "290±66", "unit": "nmol/g wet weight"}]}, {"smiles": "COc1ccc(C2=N[C@@H](C(=O)O)CS2)c(O)c1OC", "note": "[drawing 26]", "values": [{"measurement": "Iron Clearing Efficiency (%)", "setting": "[9]", "value": "12.4 ± 6.2", "unit": "%"}, {"measurement": "relative percentages of the iron excreted in the stool and urine", "setting": "[9]; [stool/urine]", "value": "94/6"}]}]}
